In US20140121235A1, “Method for Treating S6K-Overexpressing Cancers” (Rush University Medical Center, priority 2012, published 2014):

How the values were obtained:
[1] = system: ERK1/2^T202/Y204 and MEK1/2^S217/S221 phosphorylation; test: Western blot of MAP kinase pathway phosphorylation in A375 cells; format: cell-based; conditions: for block of A77 1726-induced ERK1/2 and MEK1/2 phosphorylation: A375 cells pre-treated with inhibitor 1 hr, then A77 1726 100 μM 2 hr; for effect on ERK1/2 and MEK phosphorylation, inhibitor alone: A375 cells, PLX 4720 1 μM, rapamycin 20 nM, PPP 1 μM
Method: (§1) A375 cells seeded in a 6-well plate were starved in DMEM medium containing 0.5% FBS for 2 hr and treated with the indicated concentration of A77 1726 or PLX 4720 (1 μM) for another 2 hr (A) or treated with A77 1726 (100 μM) for the indicated time (B & C). Cells were harvested and analyzed for protein phosphorylation by specific antibodies as indicated. Protein loading was monitored by stripping membrane and re-probing with antibodies against non-phosphorylated proteins. […] A375 cells seeded in a 6-well plate were starved in DMEM medium containing 05% FBS for 2 hr and treated with the indicated concentration of A77 1726 in the absence or presence of uridine (200 μM). Phosphorylated and total proteins were analyzed by Western blot as described above.
(§2) A375 cells seeded in 6-well plates were starved in DMEM medium containing 0.5% FBS for 2 hr and then pre-treated with vehicle (0.1% dimethyl sulfoxide), LY294002 (10 μM) (A), PPP (1 μM) (B), or the inhibitors of the MAP kinase pathway (PLX4720, 1 μM; U0126, 10 μM; PD98059, 10 μM) (C) for 1 hr. Cells were then treated with A77 1726 (100 μM) or rapamycin (20 nM) as indicated for 2 hr. Cells were harvested and analyzed for protein phosphorylation by specific antibodies as indicated. Protein loading was monitored by stripping membrane and re-probing with antibodies against non-phosphorylated proteins.
(§3) Cells grown in 6-well plates were harvested and lysed in NP-40 lysis buffer (50 mM Tris-HCI (pH 8.0), 150 mM NaCl, 1% NP-40, 5 mM EDTA, 10 μg/ml aprotinin, 10 μg/ml leupeptin, and 1 mM phenylmethylsulfonyl fluoride). After incubation on ice for 30 min, the cell lysates were prepared by spinning down at 4° C., 15,000 rpm for 15 min. After electrophoresis and transfer to Immobolin membrane, proteins of interest were probed with their specific antibodies, followed by horseradish peroxidase-conjugated goat anti-rabbit IgG and SuperSignal Western Pico enhanced chemiluminoscence substrate (Pierce Chemical Co., Rockford, Ill.).
(§4) The PI-3 and MAP kinase pathways play an important role in cell proliferation, differentiation, and cell cycle progress. Multiple genes in these two pathways are frequently mutated and have a commanding role in driving tumorigenesis and tumor cell proliferation (2; 3). […] Here we tested whether A77 1726 affected the activation of MAP and PI-3 kinase pathways. A375 cells grown in 6-well plates were starved in the media containing 0.5% FBS for 2 hr and then treated with the indicated concentration of A77 1726. […] We next explored the effect of A77 1726 in phosphorylation of the molecules in the PI-3 kinase pathway.

[2] = system: AKT^S473 and S6K1^T389 phosphorylation; test: Western blot of PI-3 kinase pathway phosphorylation in A375 cells; format: cell-based; conditions: for effect on AKT^S473 phosphorylation in A77 1726-treated cells: A375 cells, MAP kinase pathway inhibitor plus A77 1726
Method: as §1, §2, §3, §4

[3] = system: A375 cells; test: Cell cycle analysis (propidium iodine, flow cytometer); format: cell-based; conditions: for effect on cell cycle, inhibitor alone: PLX4720 1 μM, U0126 10 μM, PD98059 10 μM, rapamycin 20 nM, LY294002 10 μM
Method: (A) Ability of uridine to relieve the cell cycle arrest in the S phase. A375 cells grown in 6-well plates were treated with the indicated concentration of A771726 with or without uridine (200 μM) for 24 hr. Cell cycle was analyzed in a flow cytometer as described in Materials and Methods. (B) Effect of the MAP kinase pathway inhibitors on A77 1726-mediated cell cycle arrest in the S phase. A375 cells were treated with A771726 (100 μM) in the absence or presence of 0.1% DMSO, […] (1 μM), U0126 (10 μM), PD98059 (10 for 24 hr. Single cell suspensions were prepared and analyzed for cell cycle in a flow cytometer. (C) Effect of the PI-3 kinase pathway inhibitors and their effect on A77 1726-mediated cell cycle arrest. A375 cells were treated with A77 1726 (100 μM), rapamycin (20 nM), and/or LY294002 (10 μM). After incubation for 24 hr, cells were harvested and analyzed for cell cycle progress.
(§5) Cells were grown in complete RPMI1640 medium with 10% fetal bovine serum in 6-well plates. Upon 60% confluence, the cells were treated with vehicle or with indicated concentrations of A77 1726 or various inhibitors as indicated for 24 hr. Cells were pulsed with 10 μM BrdU for 2 hr. Cells were harvested, denatured with 2N HCl for 5 min at room temperature followed by neutralization with 0.1M borate buffer (pH 8.5). After washing and blocking with normal mouse serum, the cells were stained with an Alexa Fluor 488-conjugated anti-BrdU monoclonal antibody (BD Bioscience), followed by analysis in a flow cytometer. Alexa Fluor 488-conjugated mouse IgG was included as a control. For cell cycle analysis, the cells were harvested and fixed with 2 ml cold 70% ethanol in PBS overnight at 4° C. Fixed cells were then washed 3 times with PBS, treated with RNaseA (100 μg/ml in 0.5 ml PBS). After incubation at room temperature for 30 min, cells were stained with 2.5 μl propidium iodine (10 mg/ml.) and immediately analyzed for DNA content in a flow cytometer.

[4] = system: A375 cells; test: BrdU incorporation (DNA replication), flow cytometry; format: cell-based; conditions: for block of A77 1726-induced BrdU incorporation / DNA synthesis: A77 1726 100 μM plus inhibitor; for effect on DNA replication (BrdU labeling), inhibitor alone: PLX4720 1 μM, U0126 10 μM, rapamycin 20 nM, LY294002 10 μM
Method: (A) The effect of uridine to A77 1726-induced DNA synthesis. A375 cells were treated with the indicated concentration of A771726 in the absence or presence of uridine (200 μM) for 22 hr. After pulsing with BrdU (10 µM) for 2 hr, cells were harvested and analyzed for BrdU incorporation by staining with an Alexa Fluor-488-conjugated anti-BrdU monoclonal antibody followed by flow cytometry. (B) Effect of the MAP kinase pathway inhibitors to A77 1726-stimulated BrdU incorporation. A375 cells were treated with A77 1726 (100 μM) in the presence of 0.1% DMSO, PLX4720 (1 μM), U0126 (10 µM), PD98059 (10 μM). After incubation for 22 hr the cells were pulsed with BrdU for 2 hr. Single cell suspensions were stained for BrdU incorporation and analyzed for cell cycle in a flow cytometer as described in (A). (C) Effect of the PI-3 kinase pathway inhibitors and their effect on A77 1726-stimualted BrdU incorpration. A375 cells were treated with A771726 (100 μM), rapamycin (20 nM), and/or […] (10 μM). After incubation for 22 hr, cells were pulsed with BrdU for 2 hr, harvested and analyzed for BrdU labeling in a flow cytometer.
as §5

[5] = system: A375 cells; test: Cell proliferation assay (ATP-based Cell-Glo)
Method: A375 cells were seeded in 96-well plates (2000 cells/well) and incubated the indicated concentrations of A77 1726 for 72 hr in the absence or presence of various concentrations PLX4720 (A, C) with or without uridine (200 μM) (B, D). Cell proliferation was analyzed by an ATP-based Cell-Glo assay. One representative of three experiments with similar results was shown. *p<0.01.
A375 cells were grown in complete RPMI 1640 medium supplemented with 10% fetal bovine serum. The cells were seeded in 96-well plates at the density of 2,000/well in the absence or presence of various concentrations of A77 1726, PLX4720, or uridine (200 μM). After incubation for 72 hr, cell proliferation was monitored by using an ATP-based Cell-Glo assay (Promegan, Madison, Wis.) following the manufacturer's instruction.

[6] = system: ribosomal protein S6^S235/S236 phosphorylation; test: Western blot of S6 phosphorylation in A375 cells; format: cell-based; conditions: A375 cells; A77 1726 dose-dependent or 100 μM, rapamycin 20 nM, PPP 1 μM
Method: as §1, §2, §3, §4

Row | SMILES | block of A77 1726-induced ERK1/2 and MEK1/2 phosphorylation [1] | effect on AKT^S473 phosphorylation in A77 1726-treated cells [2] | effect on cell cycle, inhibitor alone ([3]; A375 cells, 24 hr) | block of A77 1726-induced BrdU incorporation / DNA synthesis [4] | effect on ERK1/2 and MEK phosphorylation, inhibitor alone [1] | effect on DNA replication (BrdU labeling), inhibitor alone [4] | further results
1 | CNC(=O)c1cc(Oc2ccc(NC(=O)Nc3ccc(Cl)c(C(F)(F)F)c3)cc2)ccn1 [BAY 43-9006] | able to block | further increase |  |  |  |  | 
2 | COc1cccc(-c2cc(=O)c3ccccc3o2)c1N [PD98059] | unable to block | further increase | arrest of the cell cycle in G1 phase | partially blocked |  |  | 
3 | CCCS(=O)(=O)Nc1ccc(F)c(C(=O)c2c[nH]c3ncc(Cl)cc23)c1F [PLX4720] | able to block | further increase | arrest of the cell cycle in G1 phase | able to block | inhibited | completely block DNA replication | effect on A375 cell proliferation ([5]; PLX4720 100 or 500 nM by itself): inhibited; effect on A375 cell proliferation ([5]; PLX4720 at 1 nM by itself): had no effect; effect on A375 cell proliferation in combination with A77 1726 ([5]; in the absence or presence of uridine): additive effect
4 | COc1cc([C@@H]2c3cc4c(cc3[C@H](O)[C@H]3COC(=O)[C@@H]23)OCO4)cc(OC)c1OC [PPP] | abrogated |  |  |  | had no effect |  | effect on S6^S235/S236 phosphorylation [6]: had no effect; block of A77 1726- and rapamycin-induced AKT phosphorylation ([2]; A375 cells pre-treated with LY294002 10 μM or PPP 1 μM): largely blocked
5 | N#CC(=C(/N)Sc1ccccc1N)/C(C#N)=C(\N)Sc1ccccc1N [U0126] | able to block | further increase | arrest of the cell cycle in G1 phase | able to block |  | completely block DNA replication | 
6 | O=c1ccn([C@@H]2O[C@H](CO)[C@@H](O)[C@H]2O)c(=O)[nH]1 [Uridine, uridine] |  |  |  |  |  |  | effect on cell cycle of A77 1726-treated cells ([3]; A375 cells treated with A77 1726 at three concentrations plus uridine): almost normalize cell cycle; effect on cell cycle arrest, uridine alone ([3]; A375 cells, uridine 200 μM, 24 hr): little effect
